Experimental data: patent publication US20100063085A1, “METHOD OF TREATING LEARNING IMPAIRMENT IN DOWN'S SYNDROME SUBJECTS” (University Court of The University of Dundee, priority 2008, published 2010)
Where two headings read alike, the source gives them in different places.

Key:
CK2 = CK2 33P kinase assay; type: biochemical
Description: (§1) All assays (25.5 μl) were carried out at room temperature (21° C.) and were linear with respect to time and enzyme concentrations under the conditions used. Assays were performed for 30 minutes except assays for LCK and PKB which were performed for 15 minutes using Multidrop Micro reagent dispensers (Thermo Electron Corporation, Waltham, Mass. 02454, USA) in a 96-well format. The concentration of […] [γ-^33P] ATP (800 cpm/pmol) in the assays was one of three concentrations (5, 20 or 50 μM) in order to be at or below Km for ATP for the enzyme. Assays were initiated with MgATP and stopped by addition of 5 μl of 0.5M orthophosphoric acid. Assays were then harvested onto P81 filterplates using a unifilter harvester (PerkinElmer, Boston, Mass. 02118, USA), with a wash buffer of 50 mM orthophosphoric acid. Filterplates were then air dried overnight. 10 μl of Microscint O was added per well prior to counting for radioactivity.
(§2) MKK1, JNK/SAPK1c, SAPK2a/p38, SAPK2b/p38β2, SAPK3/p38γ, SAPK4/p38δ, MAPK2/ERK2, MAPKAP-K1β, MAPKAP-K2, MSK1, PRAK, PKA, PKCα, PDK1, SGK, p70S6K, GSK3β, ROCK-II, PRK2, AMPK, CHK1, CHK2, CK2, PHK, LCK, were assayed according to Davies et al., (Davies, S. P., Reddy, H., Caivano, M. and Cohen, P. Biochem. J. 351, 95-105, 2000.
(§3) CSK and CDK2/cyclinA, were assayed according to Bain et al. (Bain J, McLauchlan H, Elliott M, Cohen P. Biochem J. 371, 199-204, 2003., except that ATP concentrations were either 5, 20 or 50 micromolar so that they were at or below the Km for ATP. The ATP concentrations used were as follows, 5 μM for assays of MKK1, SAPK3, SAPK4, GSK3β, PRK2 CK2 20 μm for assays of JNK, SAPK2β, MAPKAP-K2, MSK1, PRAK, PKA, […], PDK1, SGK, p70S6K, ROCK-II, CHK1, CHK2, CSK, CDK2, and 50 μM for assays of SAPK2a, MAPK2/ERK2, AMPK, LCK, PHK and MAPKAP-K1β.

PDK1 = molecular target: T1, PDK1 (Homo sapiens, UniProt O15530); experiment: PDK1 33P kinase assay; type: biochemical; conditions: for remaining activity at 1 µM: inhibitor 1 μM, read-out: PDKI activity as percentage of control without inhibitor; for remaining activity at 10 µM: inhibitor 10 μM, read-out: PDK1 activity as percentage of control without inhibitor
T1 sequence (O15530 1-556): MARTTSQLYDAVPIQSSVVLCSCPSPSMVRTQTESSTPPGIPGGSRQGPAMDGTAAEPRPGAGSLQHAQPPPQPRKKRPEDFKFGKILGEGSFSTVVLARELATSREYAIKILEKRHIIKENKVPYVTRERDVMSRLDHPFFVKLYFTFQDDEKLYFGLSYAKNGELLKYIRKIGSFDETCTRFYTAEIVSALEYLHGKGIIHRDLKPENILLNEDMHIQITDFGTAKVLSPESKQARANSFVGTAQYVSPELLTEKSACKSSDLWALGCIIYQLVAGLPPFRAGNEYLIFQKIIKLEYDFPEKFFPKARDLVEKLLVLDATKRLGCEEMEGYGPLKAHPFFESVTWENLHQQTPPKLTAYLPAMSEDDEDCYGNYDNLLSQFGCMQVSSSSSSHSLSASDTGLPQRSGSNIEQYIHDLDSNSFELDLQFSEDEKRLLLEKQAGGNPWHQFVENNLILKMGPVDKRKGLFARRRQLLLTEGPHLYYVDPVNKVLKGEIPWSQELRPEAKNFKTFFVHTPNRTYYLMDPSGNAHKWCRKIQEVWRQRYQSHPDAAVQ
Description: as §1, §2, §3

NEK6 = NEK6 (Homo sapiens, UniProt Q9HC98); experiment: biochemical; conditions: read-out: NEK6 activity as percentage of control without inhibitor
Description: as §1
(§4) NEK6 (5-20 mU diluted in 50 mM Tris (pH 7.5), 0.1 mM EGTA, 1 mg/ml BSA, 0.1%, β-Mercaptoethanol) is assayed against NEK6 peptide ([…]) in a final volume of 25.5 μl containing 50 mM Tris (pH 7.5), 0.1 mM EGTA, 0.01% Brij, 0.1%, β-Mercaptoethanol, NEK6 peptide (0.3 mM), 10 mM magnesium acetate and 0.05 mM [^33P- γATP](500-1000 cpm/pmole) and incubated for 30 min at room temperature.

NEK2a = molecular target: T2, NEK2a (Homo sapiens, UniProt P51955); experiment: NEK2a 33P kinase assay; type: biochemical; conditions: read-out: NEK2a activity as percentage of control without inhibitor
T2 sequence (P51955 1-445): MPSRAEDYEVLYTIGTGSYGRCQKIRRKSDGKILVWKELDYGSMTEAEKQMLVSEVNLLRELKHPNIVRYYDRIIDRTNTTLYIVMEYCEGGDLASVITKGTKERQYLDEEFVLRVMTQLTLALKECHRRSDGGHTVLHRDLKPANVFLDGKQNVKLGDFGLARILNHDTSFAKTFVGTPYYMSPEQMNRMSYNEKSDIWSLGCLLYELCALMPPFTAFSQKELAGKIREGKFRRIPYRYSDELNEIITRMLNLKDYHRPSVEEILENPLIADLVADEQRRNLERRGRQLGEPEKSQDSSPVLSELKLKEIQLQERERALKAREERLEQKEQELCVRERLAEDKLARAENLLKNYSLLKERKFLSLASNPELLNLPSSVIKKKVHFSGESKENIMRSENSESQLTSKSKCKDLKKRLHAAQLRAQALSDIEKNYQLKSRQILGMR
Description: as §1
as §4, with “5-20” for “NEK6 (5-20”, “of NEK2a (diluted” for “diluted”, “NEK2a” for “NEK6”, “300 μM NEK2a peptide,” for “NEK6 peptide (0.3 mM),”, “mins” for “min”

JNK/SAPK1c = JNK/SAPK1c (Homo sapiens, UniProt P45983); experiment: JNK/SAPK1c 33P kinase assay; type: biochemical; conditions: read-out: JNK/SAPK1c activity as percentage of control without inhibitor
Description: as §1, §2, §3

MKK1 = MKK1 (Homo sapiens, UniProt Q02750); experiment: MKK1 33P kinase assay; type: biochemical; conditions: read-out: MKK1 activity as percentage of control without inhibitor
Description: as §1, §2, §3

Sequence of JNK/SAPK1c (P45983 whole entry): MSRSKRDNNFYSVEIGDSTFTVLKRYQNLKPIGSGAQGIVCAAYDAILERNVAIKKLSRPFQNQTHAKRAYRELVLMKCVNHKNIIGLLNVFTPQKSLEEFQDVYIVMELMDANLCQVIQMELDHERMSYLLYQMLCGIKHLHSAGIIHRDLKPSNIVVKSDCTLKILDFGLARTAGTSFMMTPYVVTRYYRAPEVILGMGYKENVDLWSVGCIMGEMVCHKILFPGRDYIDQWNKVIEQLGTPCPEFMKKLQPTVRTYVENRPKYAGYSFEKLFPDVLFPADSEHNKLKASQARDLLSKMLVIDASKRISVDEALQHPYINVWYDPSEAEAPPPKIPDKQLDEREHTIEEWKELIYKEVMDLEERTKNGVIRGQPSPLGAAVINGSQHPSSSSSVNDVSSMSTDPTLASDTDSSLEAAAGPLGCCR
Sequence of NEK6 (Q9HC98 whole entry, species assumed): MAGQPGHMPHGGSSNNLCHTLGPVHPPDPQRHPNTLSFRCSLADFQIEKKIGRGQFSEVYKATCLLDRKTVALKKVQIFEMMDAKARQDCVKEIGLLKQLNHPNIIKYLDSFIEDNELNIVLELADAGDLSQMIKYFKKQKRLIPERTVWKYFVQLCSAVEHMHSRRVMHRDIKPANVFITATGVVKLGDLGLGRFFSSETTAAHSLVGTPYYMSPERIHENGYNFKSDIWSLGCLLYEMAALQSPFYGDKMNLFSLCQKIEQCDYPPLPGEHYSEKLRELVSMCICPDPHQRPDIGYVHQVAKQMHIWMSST
Sequence of MKK1 (Q02750 whole entry, species assumed): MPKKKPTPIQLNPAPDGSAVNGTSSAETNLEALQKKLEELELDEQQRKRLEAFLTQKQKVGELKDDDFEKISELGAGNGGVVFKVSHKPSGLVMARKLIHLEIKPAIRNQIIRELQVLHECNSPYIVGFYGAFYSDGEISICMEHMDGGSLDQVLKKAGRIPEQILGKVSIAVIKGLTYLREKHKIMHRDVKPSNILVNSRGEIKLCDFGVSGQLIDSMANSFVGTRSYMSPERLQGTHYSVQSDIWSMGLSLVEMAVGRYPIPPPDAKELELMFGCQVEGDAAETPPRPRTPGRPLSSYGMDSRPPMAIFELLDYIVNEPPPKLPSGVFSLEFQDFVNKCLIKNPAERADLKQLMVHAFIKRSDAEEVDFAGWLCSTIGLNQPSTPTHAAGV

Row | SMILES | CK2 activity as percentage of control without inhibitor (CK2; inhibitor 1 μM) [%] | CK2 activity as percentage of control without inhibitor (CK2; inhibitor 10 μM) [%] | remaining activity at 1 µM (PDK1) [%] | remaining activity at 10 µM (PDK1) [%] | remaining activity at 1 µM (NEK6; inhibitor 1 μM) [%] | remaining activity at 10 µM (NEK6; inhibitor 10 μM) [%] | remaining activity at 1 µM (NEK2a; inhibitor 1 μM) [%] | remaining activity at 10 µM (NEK2a; inhibitor 10 μM) [%] | remaining activity at 1 µM (JNK/SAPK1c) [%] | remaining activity at 10 µM (JNK/SAPK1c) [%] | remaining activity at 1 µM (MKK1; inhibitor 1 μM) [%] | remaining activity at 10 µM (MKK1; inhibitor 10 μM) [%] | remaining activity at 1 µM (JNK/SAPK1c; inhibitor 1 μM) [%] | remaining activity at 10 µM (JNK/SAPK1c; inhibitor 10 μM) [%] | remaining activity at 1 µM (NEK6) [%] | remaining activity at 10 µM (NEK6) [%] | remaining activity at 1 µM (NEK2a) [%] | remaining activity at 10 µM (NEK2a) [%] | remaining activity at 1 µM (MKK1) [%] | remaining activity at 10 µM (MKK1) [%]
1 | COc1ccc2c3c([nH]c2c1)C(C)=NCC3 [Harmaline] | 94 | 88 | 100 | 95 | 99 | 87 | 69 | 109 | 99 | 96 | 47 | 39 | – | – | – | – | – | – | – | –
2 | CC1=NCCc2c1[nH]c1cc(O)ccc21 [Harmalol] | 55 | 12 | 88 | 96 | 94 | 92 | 104 | 83 | – | – | 92 | 66 | 87 | 84 | – | – | – | – | – | –
3 | COc1ccc2c(c1)[nH]c1c(C)nccc12 [Harmine] | 82 | 41 | 89 | 95 | – | – | – | – | 85 | 69 | – | – | – | – | 96 | 99 | 106 | 111 | 76 | 73
